The target of one assay is DQ2–CLIP complex (Homo sapiens, UniProt P01909+P01920). Description: CLIP pre-conditioned peptide exchange assay. It is filed as binding. The following applies: CE-FL; for binding to DQ2–CLIP preparation / displacement of pre-bound CLIP peptide: pH 5.5, peptide:DQ2 5:1 ([Cy5-20-mer]=35 μM; [DQ2-CLIP complex]=7 μM).
The subject of another assay is HLA-DQ2. Put plainly: DQ2-peptide binding. Also noted: species or system human. The following applies: single peptide binding; thrombin treated DQ2–αI; DQ2:peptide = 10:1 ([DQ2]=6 μM, [peptide]=0.6 μM); 48 h at 37 °C; phosphate buffer pH 7.3; CE-FL peak areas; error less than 4% in multiple repeats.

The results in this text go back to publication PMC3382112 (Chemistry, an Asian journal, 2012).

Chain of DQ2–CLIP complex (P01920 33-230 limits assumed, other chains not shown): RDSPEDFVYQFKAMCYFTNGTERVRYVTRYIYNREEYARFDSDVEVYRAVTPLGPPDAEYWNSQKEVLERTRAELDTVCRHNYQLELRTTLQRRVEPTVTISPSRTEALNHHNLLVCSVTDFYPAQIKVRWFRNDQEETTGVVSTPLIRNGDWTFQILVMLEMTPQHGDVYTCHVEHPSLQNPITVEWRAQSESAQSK

Regarding Cy5-AAIAAVKEEAF [reference compound], the “binding to DQ2–CLIP preparation / displacement of pre-bound CLIP peptide” value on DQ2–CLIP complex is listed as “unable to bind”.
For Cy5-LQLQPFPQPELPYPQPELPY [Cy5-20-mer], the “binding to DQ2–CLIP preparation / displacement of pre-bound CLIP peptide” value at DQ2–CLIP complex is listed as “not at pH 5.5”. On DQ2–CLIP complex (pH 7.3, with 20-mer (5:1, [Cy5-20-mer]=35 μM; [DQ2-CLIP complex]=7 μM) versus absence of 20-mer), the “effect on dissociation kinetics of CLIP peptide from DQ2–CLIP complex” value was “did not affect the dissociation kinetics”. The “SDQ2-peptide / Stotal peptide (%) (binding capacity, fraction of bound peptide)” value in the assay with HLA-DQ2 worked out at 64%.
